Results published in PMC10552397 (Cell Communication and Signaling : CCS, 2023).

What was measured:
HeLa wt cells [1] = assay: Immunofluorescence of GRASP55 and LC3; format: cell-based; conditions: 6 h; BafA1 10 nM
Protocol: (§1) For immunofluorescence microscopy, HeLa cells were seeded on glass coverslips in 24-well plates. After treatment, cells were fixed in 4% paraformaldehyde for 15 min on ice, quenched with 50 mM NH4Cl for 15 min and permeabilized with 50 µg/mL digitonin (Sigma-Aldrich, St. Louis, MO, USA, #D141) for 5 min. Fixed samples were blocked with 3% BSA (Roth, Karlsruhe, Germany, #8076) for 30 min or overnight and incubated with primary antibodies diluted in 3% BSA for 2 h. Samples were then washed three times with DPBS, incubated with the appropriate secondary antibodies diluted in 3% BSA for 30 min and washed three times with DPBS. Afterwards, cells were embedded in ProLong Glass Antifade Mountant (Thermo Fisher Scientific, Waltham, MA, USA, #P36980) containing 1 µg/mL DAPI (Roth, Karlsruhe, Germany, #6335.1). Images were recorded with an Axio Observer 7 fluorescence microscope (Carl Zeiss Microscopy, Oberkochen, Germany) using a 40x/1,4 Oil DIC M27 Plan-Apochromat objective (Carl Zeiss Microscopy, Oberkochen, Germany) and an ApoTome 2 (Carl Zeiss Microscopy, Oberkochen, Germany).

HeLa wt cells [2] = assay: Immunofluorescence of LC3 and LAMP1; format: cell-based; conditions: 2 h; prodigiosin 100 nM, BafA1 10 nM
Protocol: as §1

For `CO/C1=C\C(C)=C\[C@@H](C)[C@@H](O)[C@@H](C)C/C(C)=C/C=C/[C@H](OC)[C@@H]([C@@H](C)[C@@H](O)[C@H](C)[C@@]2(O)C[C@@H](O)[C@H](C)[C@@H](C(C)C)O2)OC1=O` [BafA1, bafilomycin A1, reference compound], the “co-localization of LC3 and GRASP55” value (HeLa wt cells [1]) was “no significant increase”, the “number of LC3 dots” value (HeLa wt cells [1]) was “enriched” and the LC3-positive structures (HeLa wt cells [2]) was “only minor”. The “co-localization of LC3- and LAMP1-positive structures” value (HeLa wt cells [2]) was “comparatively low”.
